Here are results for 25 compounds from patent US20240400553A1, “AMINE BASED MATRIPTASE 2 INHIBITORS AND USES THEREOF” (Disc Medicine, Inc., priority 2023, published 2024).

For orientation: Ki means the equilibrium dissociation constant of an inhibitor or competing ligand from its target.

One assay addresses T1, Human Recombinant Matriptase 2 (Homo sapiens, UniProt Q8IU80).
T1 construct: made in house
T1 sequence (Q8IU80 1-811): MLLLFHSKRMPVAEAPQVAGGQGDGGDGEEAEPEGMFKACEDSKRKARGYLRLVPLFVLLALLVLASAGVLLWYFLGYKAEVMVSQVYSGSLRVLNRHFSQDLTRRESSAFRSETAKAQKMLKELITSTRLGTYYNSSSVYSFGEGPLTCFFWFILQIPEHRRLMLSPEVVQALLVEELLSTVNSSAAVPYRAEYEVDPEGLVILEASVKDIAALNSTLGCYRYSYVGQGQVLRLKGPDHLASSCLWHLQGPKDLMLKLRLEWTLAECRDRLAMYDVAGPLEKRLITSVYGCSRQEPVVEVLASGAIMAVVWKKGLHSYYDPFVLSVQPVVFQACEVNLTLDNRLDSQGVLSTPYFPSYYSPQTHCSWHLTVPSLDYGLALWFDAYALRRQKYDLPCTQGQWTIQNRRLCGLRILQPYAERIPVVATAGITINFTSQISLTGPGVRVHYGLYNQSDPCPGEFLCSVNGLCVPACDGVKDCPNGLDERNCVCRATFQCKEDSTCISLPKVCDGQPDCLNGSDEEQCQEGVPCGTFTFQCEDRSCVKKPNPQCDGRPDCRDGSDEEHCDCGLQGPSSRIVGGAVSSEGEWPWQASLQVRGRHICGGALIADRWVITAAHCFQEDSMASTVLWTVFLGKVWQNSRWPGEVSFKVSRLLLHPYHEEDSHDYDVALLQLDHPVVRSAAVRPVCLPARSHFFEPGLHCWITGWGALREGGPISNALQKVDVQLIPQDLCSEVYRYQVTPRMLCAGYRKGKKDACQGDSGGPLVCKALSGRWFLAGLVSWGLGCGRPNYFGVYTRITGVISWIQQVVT
Description: Matriptase 2 inhibition, fluorescence based assay (Method I). In kind it is biochemical. The conditions noted are these: Table A; Ki of Matriptase-2; read-out: Mat-2 Ki. In short, it runs like this: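 Fluorogenic readout (Ex 360/Em 480 nm) taken 60 min after adding 62 μM Boc-Gln-Ala-Arg-AMC, following 30-min enzyme–compound preincubation at 25 °C. Conditions: 3.5 nM in-house enzyme, pH 7.5 Tris/NaCl/gelatin buffer, 1% DMSO; percent inhibition versus concentration fitted by variable-slope sigmoidal regression.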
As to `CN(C)CCCOC(=O)c1cc2ccc(CN)nc2n1Cc1cc(NS(=O)(=O)Cc2ccccc2)cc2ccccc12` [Compound 47, 3-(dimethylamino)prop-yl 6-(aminomethyl)-1-{[3-(phenylmethane-sulfonamido)naphthalen-1-yl]methyl}-1H-pyr-rolo[2,3-b]pyridine-2-carboxylate], the Ki was at most 100 nM.
As for `CN1CC[C@H](CNC(=O)c2cc3ccc(CN)nc3n2Cc2cc(NS(=O)(=O)Cc3ccccc3)cc3ccccc23)CC1=O` (racemic) [Compound 37, rac-6-(aminomethyl)-N-{[(4R)-1-methyl-2-oxo-piperidin-4-yl]methyl}-1-{[3-(phenylmethane-sulfonamido)naphthalen-1-yl]methyl}-1H-pyr-rolo[2,3-b]pyridine-2-carboxamide], the inhibition constant Ki is at most 100 nM.
Turning to `Cn1ccnc1COC(=O)c1cc2ccc(CN)nc2n1Cc1cc(NS(=O)(=O)Cc2ccsc2)cc2ccccc12` [Compound 157, (1-methyl-1H-imidazol-2-yl)methyl 6-amino-methyl)-1-({3-[(thio-phen-3-yl)methanesul-fonamido]naphthalen-1-yl}methyl)-1H-pyrrolo-[2,3-b]pyridine-2-car-boxylate], the inhibition constant Ki is at most 100 nM.
Regarding `CN1CCC(CNC(=O)c2cc3ccc(CN)nc3n2Cc2cc(NS(=O)(=O)Cc3ccsc3)cc3ccccc23)CC1` [Compound 6, 6-(aminomethyl)-N-((1-methylpiperidin-4-yl)methyl)-1-((3-((thiophen-3-ylmethyl)sulfonamido)naphthalen-1-yl)methyl)-1H-pyrrolo[2,3-b]pyridine-2-carboxamide], the Ki was at most 100 nM.
For `NCc1ccc2cc(C(=O)NCCN3CCOCC3)n(Cc3cc(NS(=O)(=O)Cc4ccsc4)cc4ccccc34)c2n1` [Compound 173, 6-(aminomethyl)-N-[2-(morpholin-4-yl)ethyl]-1-({3-[(thiophen-3-yl)-methanesulfonamido]-naphthalen-1-yl}meth-yl)-1H-pyrrolo[2,3-b]-pyridine-2-carboxamide], the Ki is at most 100 nM.
Turning to `NCCOC(=O)c1cc2ccc(CN)nc2n1Cc1cc(NS(=O)(=O)Cc2ccccc2)cc2ccccc12` [Compound 91, 2-aminoethyl 6-(amino-methyl)-1-{[3-(phenyl-methanesulfonamido)naphthalen-1-yl]methyl}-1H-pyrrolo[2,3-b]pyr-idine-2-carboxylate], the Ki is 100 to 500 nM.
On to `CN(C)CCOC(=O)c1cc2ccc(CN)nc2n1Cc1cc(NS(=O)(=O)Cc2ccsc2)cc2ccccc12` [Compound 169, 2-(dimethylamino)ethyl 6-(aminomethyl)-1-({3-[(thiophen-3-yl)methane-sulfonamido]naphthalen-1-yl}methyl)-1H-pyr-rolo[2,3-b]pyridine-2-carboxylate], for which the Ki was at most 100 nM.
Take `CN(C)CCCCCOC(=O)c1cc2ccc(CN)nc2n1Cc1cc(NS(=O)(=O)Cc2ccccc2)cc2ccccc12` [Compound 34, 5-(dimethylamino)pentyl 6-(aminomethyl)-1-{[3-(phenylmethanesulfon-amido)naphthalen-1-yl]-methyl}-1H-pyrrolo[2,3-b]pyridine-2-carboxylate]: the inhibition constant (Ki) is at most 100 nM.
For the compound `COCCN1CCC[C@H](COC(=O)c2cc3ccc(CN)nc3n2Cc2cc(NS(=O)(=O)Cc3ccsc3)cc3ccccc23)C1` (racemic) [Compound 166, [1-(2-methoxyethyl)-piperidin-3-yl]methyl 6-(aminomethyl)-1-({3-[(thiophen-3-yl)methane-sulfonamido]naphthalen-1-yl}methyl)-1H-pyr-rolo[2,3-b]pyridine-2-carboxylate], the inhibition constant Ki was at most 100 nM.
`CNCCOC(=O)c1cc2ccc(CN)nc2n1Cc1cc(NS(=O)(=O)Cc2ccsc2)cc2ccccc12` [Compound 175, 2-(methylamino)ethyl 6-(aminomethyl)-1-({3-[(thiophen-3-yl)methane-sulfonamido]naphthalen-1-yl}methyl)-1H-pyr-rolo[2,3-b]pyridine-2-carboxylate]: the Ki is at most 100 nM.
For the compound `CC(C)N1CCC(COC(=O)c2cc3ccc(CN)nc3n2Cc2cc(NS(=O)(=O)Cc3ccccc3)cc3ccccc23)CC1` [Compound 15], the Ki was at most 100 nM.
In the case of `CC(C)n1cnc(COC(=O)c2cc3ccc(CN)nc3n2Cc2cc(NS(=O)(=O)Cc3ccccc3)cc3ccccc23)c1` [Compound 87, [1-(propan-2-yl)-1H-imidazol-4-yl]methyl 6-(aminomethyl)-1-{[3-(phenylmethanesulfon-amido)naphthalen-1-yl]-methyl}-1H-pyrrolo[2,3-b]pyridine-2-carboxylate], the Ki lay within 100 to 500 nM.

The same assay, now with this note: Table A; Ki of Matriptase-2 given as class symbols; read-out: Mat-2 Ki.
Regarding `CN(C)C(=O)N1CC[C@H](OC(=O)Nc2cc(Cn3c(C(=O)O)cc4ccc(CN)nc43)c3ccccc3c2)C1` [Compound 341], the Ki lay within 500 to 3000 nM.
The same measure, in the same setting: for `NCc1ccc2cc(-c3cnn[nH]3)n(Cc3cc(NS(=O)(=O)Cc4ccccc4)cc4ccccc34)c2n1` [Compound 350, N-(4-((6-(aminomethyl)-2-(1H-1,2,3-triazol-5-yl)-1H-pyrrolo[2,3-b]pyridin-1-yl)methyl)naphthalen-2-yl)-1-phenylmethanesulfonamide] the value was 100 to 500 nM; for `NCc1ccc2cc(C(=O)O)n(Cc3cc(NC(=O)NCC4CCN(S(=O)(=O)C5CC5)CC4)cc4ccccc34)c2n1` [Compound 292, 6-(aminomethyl)-1-({3-[({[1-(cyclopropanesul-fonyl)piperidin-4-yl]-methyl}carbamoyl)-amino]naphthalen-1-yl}-methyl)-1H-pyrrolo[2,3-b]pyridine-2-carboxylic acid], 100 to 500 nM; for `NCc1ccc2cc(-c3noc(=O)[nH]3)n(Cc3cc(NS(=O)(=O)Cc4ccccc4)cc4ccccc34)c2n1` [Compound 353, N-(4-((6-(aminomethyl)-2-(5-hydroxy-1,2,4-oxadiazol-3-yl)-1H-pyrrolo[2,3-b]pyridin-1-yl)methyl)naphthalen-2-yl)-1-phenylmethanesulfonamide], 100 to 500 nM.
As for `CN1CCC(OC(=O)c2cc3ccc(CN)cc3n2Cc2cc(NS(=O)(=O)Cc3ccccc3)cc3ccccc23)CC1` [Compound 371, 1-methylpiperidin-4-yl 6-(aminomethyl)-1-((3-((phenylmethyl)sulfonamido)naphthalen-1-yl)methyl)-1H-indole-2-carboxylate], the inhibition constant (Ki) is at most 100 nM.
`NCc1ccc2cc(C(=O)O)n(Cc3cc(NS(=O)(=O)[C@H]4CCOC4)cc4ccccc34)c2n1` (racemic) [Compound 273, rac-6-(aminomethyl)-1-({3-[(3R)-oxolane-3-sulfonamido]naphthalen-1-yl}methyl)-1H-pyr-rolo[2,3-b]pyridine-2-carboxylic acid]: the Ki was in the range of 500 to 3000 nM.
Consider `CN1CCC[C@H]1CCOC(=O)Nc1cc(Cn2c(C(=O)O)cc3ccc(CN)nc32)c2ccccc2c1` [Compound 289, (S)-6-(aminomethyl)-1-((3-(((2-(1-methylpyrrolidin-2-yl)ethoxy)carbonyl)amino)naphthalen-1-yl)methyl)-1H-pyrrolo[2,3-b]pyridine-2-carboxylic acid], for which the Ki was 100 to 500 nM.
Take `NCc1ccc2cc(-c3nnc(N)o3)n(Cc3cc(NS(=O)(=O)Cc4ccccc4)cc4ccccc34)c2n1` [Compound 348, N-(4-{[2-(5-amino-1,3,4-oxadiazol-2-yl)-6-(amino-methyl)-1H-pyrrolo[2,3-b]pyridin-1-yl]methyl}-naphthalen-2-yl)-1-phen-ylmethanesulfonamide]: the inhibition constant Ki is at most 100 nM.
The same measure, in the same setting: for `NCc1ccc2cc(-c3ccn[nH]3)n(Cc3cc(NS(=O)(=O)Cc4ccccc4)cc4ccccc34)c2n1` [Compound 351] the value was at most 100 nM.
Consider `NCc1ccc2cc(C(=O)O)n(Cc3cc(NS(=O)(=O)CCn4ccnn4)cc4ccccc34)c2n1` [Compound 228, 6-(aminomethyl)-1-({3-[2-(1H-1,2,3-triazol-1-yl)ethanesulfonamido]-naphthalen-1-yl}meth-yl)-1H-pyrrolo[2,3-b]-pyridine-2-carboxylic acid], for which the Ki lay in the range of 100 to 500 nM.

The same assay, now with this note: Table B; Human Recombinant Matriptase 2, 3.5 nM enzyme, 62 μM substrate, 30 mins preincubation; read-out: Mean Ki.
Regarding `CN1CCC(COC(=O)c2cc3ccc(CN)nc3n2Cc2cc(NS(=O)(=O)Cc3ccccc3)c3ccccc3c2)CC1` [Compound 2.16], the Ki lay within 100 to 500 nM.
For the compound `CN1CCC(COC(=O)c2cc3ccc(CN)nc3n2Cc2cc(NS(=O)(=O)Cc3ccccc3)cc3c2CCCC3)CC1=O` (stereo not shown) [Compound 2.19], the Ki is at most 100 nM.
On the same count and under the same terms, for `NCc1ccc2cc(C(=O)Nc3ccc(N)cc3)n(Cc3cc(NS(=O)(=O)Cc4ccccc4)cc4ccccc34)c2n1` [Compound 2.35] the value was 100 to 500 nM.
